Measurements: US11344709B2, “Fluid delivery apparatus having a controller assembly and method of use” (SORRENTO THERAPEUTICS, INC., priority 2016, dated 2022)
Read-outs that look alike come from different tables or passages of the source.

Columns and labels:
[1] = Porcine Pharmacokinetic Study (FIG. 50): sumatriptan in blood serum after delivery from the fluid delivery apparatus; assay type: in vivo, Yorkshire pigs; conditions: 20 mg dose from the fluid delivery apparatus (microneedles), pig; actual profile FIG. 50 compared with nasal, oral and Zecuity (FIG. 49)
Description: In reference to FIG. 50, shown is the time versus concentration profile of sumatriptan as administered according to the methods and devices disclosed herein. An ideal profile (identified as “Target PK Profile”) is calculated based on the therapeutic efficiency of the medicament.
Thirty five 80 kg castrated or female Yorkshire pigs were placed under anesthesia and a catheter was inserted into the right or left jugular vein. After the catheter was placed, the pigs were kept under anesthesia and placed on their backs. The ventral region was shaved and covered with a depilatory cream (Nair Sensitive®) for 8 minutes. The cream was removed and the area washed with alcohol. The fluid delivery apparatus was placed against the skin with an adhesive and the microneedles (100 total) were inserted at a post traveling velocity of 6 m/s. A 20 mg dose of sumatriptan from the fluid deliver apparatus was delivered while the pig was under anesthesia. 3 mL blood samples were withdrawn at each time point and spun down to recover the blood serum.

[2] = FIG. 49, cited from earlier work
[3] = nasal administration, compared with actual profile of the fluid delivery apparatus (FIG. 50)
[4] = subcutaneous administration, compared with the other routes of administration

AUC [1]: significantly improved
Css [1]: significantly improved
Tmax [1]: significantly improved
SMILES: CNS(=O)(=O)Cc1ccc2[nH]cc(CCN(C)C)c2c1.O=C(O)CCC(=O)O [sumatriptan, 1-[3-[2-(dimethylamino)ethyl]-1H-indol-5-yl]-N-methylmethanesulfonamide butanedioic acid]
AUC [2, 3]: significantly lower
Css [2, 3]: significantly lower
Tmax ([2]; oral administration, compared with actual profile of the fluid delivery apparatus (FIG. 50)): much slower
Css ([2]; subcutaneous administration): significantly lower as time progresses
Cmax [2, 4]: higher
Tmax [2, 4]: much faster
